Patent publication US8273762B2, “Hexahydro-pyrrolo-isoquinoline compounds” (Janssen Pharmaceutica NV, priority 2005, dated 2012)

Experiments:
[1] = biological target: T1, cloned human H3 receptor, stably expressed in SK-N-MC cells (Homo sapiens, UniProt Q9Y5N1); assay: H3 receptor binding (N-[3H]-α-methylhistamine displacement); settings: SK-N-MC membranes, 0.8 nM N-[3H]-α-methylhistamine
T1 construct: expressed in transfected cells

[2] = biological target: T2, human H3 receptor (SK-N-MC cells) (Homo sapiens, UniProt Q9Y5N1); assay: Cyclic AMP accumulation (β-galactosidase reporter, Schild analysis vs histamine); assay type: cell-based; settings: read-out: H3 pA2 (converted)
T2 construct: expressed in transfected cells; host or cells: SK-N-MC sublines with CRE-beta-galactosidase reporter

[3] = biological target: T3, human SERT (HEK293 membranes) (Homo sapiens, UniProt P31645); assay: Human SERT binding (3H-citalopram displacement)
T3 construct: purchased Perkin-Elmer; host or cells: HEK293 membranes
T3 sequence (P31645 whole entry): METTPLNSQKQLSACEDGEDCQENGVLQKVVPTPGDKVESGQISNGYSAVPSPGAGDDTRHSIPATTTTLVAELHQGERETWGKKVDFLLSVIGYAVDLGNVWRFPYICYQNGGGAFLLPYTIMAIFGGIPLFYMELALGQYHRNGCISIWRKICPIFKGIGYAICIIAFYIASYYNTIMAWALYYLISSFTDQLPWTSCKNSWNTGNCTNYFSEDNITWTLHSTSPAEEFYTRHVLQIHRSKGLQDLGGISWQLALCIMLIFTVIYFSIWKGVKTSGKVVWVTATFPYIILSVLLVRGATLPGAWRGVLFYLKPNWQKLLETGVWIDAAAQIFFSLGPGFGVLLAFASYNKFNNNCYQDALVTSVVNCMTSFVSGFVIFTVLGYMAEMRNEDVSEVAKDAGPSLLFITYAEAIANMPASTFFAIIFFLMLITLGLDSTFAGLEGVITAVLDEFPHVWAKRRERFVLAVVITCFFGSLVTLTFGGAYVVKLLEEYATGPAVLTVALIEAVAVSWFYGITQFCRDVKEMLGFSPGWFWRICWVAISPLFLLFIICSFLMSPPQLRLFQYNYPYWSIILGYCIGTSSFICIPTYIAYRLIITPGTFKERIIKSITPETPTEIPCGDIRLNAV

T2 sequence (Q9Y5N1 whole entry): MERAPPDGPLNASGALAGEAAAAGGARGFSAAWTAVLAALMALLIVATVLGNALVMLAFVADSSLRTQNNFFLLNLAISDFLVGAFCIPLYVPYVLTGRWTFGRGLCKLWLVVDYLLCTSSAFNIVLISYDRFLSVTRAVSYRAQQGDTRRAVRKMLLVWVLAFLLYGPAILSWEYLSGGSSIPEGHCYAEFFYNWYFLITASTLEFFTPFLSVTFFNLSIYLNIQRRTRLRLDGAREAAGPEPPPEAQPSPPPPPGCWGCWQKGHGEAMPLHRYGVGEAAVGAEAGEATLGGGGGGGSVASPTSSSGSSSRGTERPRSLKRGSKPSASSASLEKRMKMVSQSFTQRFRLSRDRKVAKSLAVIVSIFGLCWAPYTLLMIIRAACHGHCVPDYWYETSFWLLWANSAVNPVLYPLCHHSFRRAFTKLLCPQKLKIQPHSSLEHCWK
T1 sequence (Q9Y5N1 whole entry): as above

SMILES	Ki [1] [nM]	Kb [2] [nM]	Ki [3] [nM]
Oc1ccccc1[C@H]1CN2CCC[C@H]2c2cc(OCCCN3CCCCC3)ccc21 (relative stereo) [Example 16]	4	1.26	112
CSc1ccc([C@@H]2CN3CCC[C@H]3c3cc(C#CCCN4CCCCC4)ccc32)cc1 (relative stereo) [Example 98A, Cis-6-(4-methylsulfanyl-phenyl)-9-(4-piperidin-1-yl-but-1-ynyl)-1,2,3,5,6,10b-hexahydro-pyrrolo[2,1-a]isoquinoline]	4	10	2
Cc1cccc([C@H]2CN3CCC[C@H]3c3cc(OCCCN4CCCCC4)ccc32)c1 (relative stereo) [Example 31]	12	–	28
COc1ccccc1[C@H]1CN2CCC[C@H]2c2cc(OCCCN3CCCCC3)ccc21 (relative stereo) [Example 13A]	–	–	21
COc1ccc([C@H]2CN3CCC[C@H]3c3cc(OCCCN4CCOCC4)ccc32)cc1 (relative stereo) [Example 38]	–	–	7
CSc1ccc([C@H]2CN3CCC[C@H]3c3cc(C#CCCN4CCCCC4)ccc32)cc1 (relative stereo) [Example 98B, Trans-6-(4-methylsulfanyl-phenyl)-9-(4-piperidin-1-yl-but-1-ynyl)-1,2,3,5,6,10b-hexahydro-pyrrolo[2,1-a]isoquinoline]	3	2.51	–
CSc1ccc([C@H]2CN3CCC[C@H]3c3ccc(C#CCCN4CCCCC4)cc32)cc1 (relative stereo) [Example 97B, Trans-6-(4-methylsulfanyl-phenyl)-8-(4-piperidin-1-yl-but-1-ynyl)-1,2,3,5,6,10b-hexahydro-pyrrolo[2,1-a]isoquinoline]	12	10	–
Brc1ccc([C@H]2CN3CCC[C@H]3c3cc(OCCCN4CCCCC4)ccc32)cc1 (relative stereo) [Example 40]	3	–	18

More lines, now with the values ahead:

Ki [1] [nM]	Kb [2] [nM]	Ki [3] [nM]	SMILES
2	–	6	Clc1ccc([C@@H]2CN3CCC[C@H]3c3cc(OCCCN4CCCCC4)ccc32)cc1 (relative stereo) [Example 66A, Cis-6-(4-Chloro-phenyl)-9-(3-piperidin-1-yl-propoxy)-1,2,3,5,6,10b-hexahydro-pyrrolo[2,1-a]isoquinoline]
1	0.398	5	COc1ccc([C@H]2CN3CCC[C@H]3c3cc(OCCCN4CCCCC4)ccc32)c(OC)c1 (relative stereo) [Example 19]
2	–	4	CSc1ccc([C@H]2CN3CCC[C@H]3c3cc(OCCCN4CCCCC4)ccc32)cc1 (relative stereo) [Example 39A, Cis-6-(4-Methylsulfanyl-phenyl)-9-(3-piperidin-1-yl-propoxy)-1,2,3,5,6,10b-hexahydro-pyrrolo[2,1-a]isoquinoline]
0.9	–	2	COc1ccc([C@H]2CN3CCC[C@H]3c3cc(OCC4CCN(C(C)C)CC4)ccc32)cc1 (relative stereo) [Example 29]
1	0.158	–	O=[N+]([O-])c1cccc([C@@H]2CN3CCC[C@H]3c3cc(OCCCN4CCCCC4)ccc32)c1 (relative stereo) [Example 4B, Trans-6-(3-Nitro-phenyl)-9-(3-piperidin-1-yl-propoxy)-1,2,3,5,6,10b-hexahydro-pyrrolo[2,1-a]isoquinoline]
3	–	5	COc1ccc([C@H]2CN3CCC[C@H]3c3cc(OCCCN4CCC(F)CC4)ccc32)cc1 (relative stereo) [Example 47]
0.8	0.0794	–	c1cncc([C@H]2CN3CCC[C@H]3c3cc(OCCCN4CCCCC4)ccc32)c1 (relative stereo) [Example 26]
2	3.16	–	Ic1ccc([C@H]2CN3CCC[C@H]3c3cc(OCCCN4CCCCC4)ccc32)cc1 (relative stereo) [Example 35B, Trans-6-(4-Iodo-phenyl)-9-(3-piperidin-1-yl-propoxy)-1,2,3,5,6,10b-hexahydro-pyrrolo[2,1-a]isoquinoline]
